Publication PMC8248323 (Clinical Pharmacology in Drug Development, 2021)

Columns and labels:
[1] = biological target: OATP1B1 (Homo sapiens, UniProt Q9Y6L6); test: In vitro transporter inhibition; type: in vitro ADME
[2] = Phase 1 DDI study 012: lemborexant plasma PK with/without fluconazole; type: in vivo, human; details: for AUC: human, plasma
[3] = test system: CYP2B6; type: in vitro ADME; details: in vitro
[4] = biological target: CYP2A6 (Homo sapiens, UniProt P11509); test: In vitro CYP inhibition; type: in vitro ADME
[5] = coadministration with fluconazole
[6] = lemborexant + fluconazole / lemborexant alone

CYP2A6, sequence (P11509 whole entry): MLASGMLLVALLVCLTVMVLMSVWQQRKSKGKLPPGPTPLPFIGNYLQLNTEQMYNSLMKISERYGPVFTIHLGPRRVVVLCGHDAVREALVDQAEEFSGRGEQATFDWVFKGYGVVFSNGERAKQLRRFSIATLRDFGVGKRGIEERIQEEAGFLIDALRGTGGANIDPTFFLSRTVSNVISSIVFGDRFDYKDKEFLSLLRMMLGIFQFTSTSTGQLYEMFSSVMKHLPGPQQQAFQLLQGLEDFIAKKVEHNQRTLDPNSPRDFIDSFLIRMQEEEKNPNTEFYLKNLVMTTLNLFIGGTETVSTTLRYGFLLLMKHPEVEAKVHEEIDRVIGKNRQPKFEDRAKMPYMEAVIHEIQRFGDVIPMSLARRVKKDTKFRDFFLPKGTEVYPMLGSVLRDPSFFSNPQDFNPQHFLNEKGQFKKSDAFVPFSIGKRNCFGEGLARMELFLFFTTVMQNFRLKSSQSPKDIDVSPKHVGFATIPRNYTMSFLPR
OATP1B1, sequence (Q9Y6L6 whole entry): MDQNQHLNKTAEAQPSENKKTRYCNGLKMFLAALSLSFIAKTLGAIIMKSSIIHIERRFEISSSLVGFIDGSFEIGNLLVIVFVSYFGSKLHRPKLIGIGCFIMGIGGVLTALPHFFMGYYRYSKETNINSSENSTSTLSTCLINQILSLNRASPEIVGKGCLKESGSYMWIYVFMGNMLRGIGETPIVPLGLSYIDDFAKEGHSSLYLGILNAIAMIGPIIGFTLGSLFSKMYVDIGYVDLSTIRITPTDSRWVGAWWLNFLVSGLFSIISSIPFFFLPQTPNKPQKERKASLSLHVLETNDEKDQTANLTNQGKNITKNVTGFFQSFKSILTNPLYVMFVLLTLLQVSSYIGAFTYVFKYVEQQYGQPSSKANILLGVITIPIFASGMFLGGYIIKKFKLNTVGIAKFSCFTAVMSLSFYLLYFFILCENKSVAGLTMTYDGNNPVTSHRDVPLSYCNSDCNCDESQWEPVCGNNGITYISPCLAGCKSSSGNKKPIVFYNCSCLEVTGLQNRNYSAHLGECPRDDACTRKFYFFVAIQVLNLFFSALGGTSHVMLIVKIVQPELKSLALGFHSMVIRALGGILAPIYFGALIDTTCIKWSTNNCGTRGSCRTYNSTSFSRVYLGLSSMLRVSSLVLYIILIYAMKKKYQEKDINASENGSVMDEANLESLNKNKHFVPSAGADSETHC

Cc1ncc(OC[C@@]2(c3cccc(F)c3)C[C@H]2C(=O)Nc2ccc(F)cn2)c(C)n1 [Lemborexant, (1R,2S)‐2‐{[(2,4‐dimethylpyrimidin‐5‐yl)oxy]methyl}‐2‐(3‐fluorophenyl)‐N‐(5‐fluoropyridin‐2‐yl)cyclopropanecarboxamide]
inhibition of OATP1B1 [1]: do not inhibit
increase in lemborexant AUC0–inf [2, 5]: ~4 fold
increase in lemborexant Cmax [2, 5]: 1.6 fold
AUC ([2]; AUC0‐inf, Geometric LSM, lemborexant 10 mg + fluconazole 200 mg, n = 12): 1560 ng·h/mL
AUC ([2]; AUC0‐inf, Mean (SD), lemborexant 10 mg + fluconazole 200 mg): 1540 ng·h/mL
AUC ([2]; AUC0‐t, Geometric LSM, lemborexant 10 mg + fluconazole 200 mg once daily, n = 14): 1330 ng·h/mL
AUC ([2]; AUC0‐t, Mean (SD), lemborexant 10 mg + fluconazole 200 mg): 1360 ng·h/mL
AUC0‐inf, Geometric Mean Ratio (90%CI) [2, 6]: 4.175 (3.828‐4.553)
AUC0‐t, Geometric Mean Ratio (90%CI) [2, 6]: 3.759 (3.486‐4.053)
Cmax, Geometric Mean Ratio (90%CI) [2, 6]: 1.622 (1.336‐1.969)
induction of CYP2B6 [3]: have the potential to induce
inhibition of CYP2A6 [4]: do not inhibit
